Measured values reported in patent publication US12274703B2, “Compositions and methods of treatment for neurological disorders comprising a dementia” (Gliapharm SA, priority 2017, dated 2025).
Read-outs that look alike come from different tables or passages of the source.

Assays:
astrocytes = experiment: Extracellular lactate quantification; type: cell-based, mouse; conditions: Mus musculus, Astrocyte; Appendix II; lactate secretion; read-out: EC50
Experimental: (§1) Primary cultures of cerebrocortical astrocytes were obtained from 1-2-day-old OF1 mouse pups (Charles River Laboratories). Briefly, cortices were isolated and minced in small pieces under a dissecting microscope. The cells were incubated for 30 min at 37° C. in a solution containing 20 U/ml of papain enzyme (Worthington Biochemical), L-cysteine 1 mM (Sigma), and 10 kU/ml DNase I (Worthington Biochemical) for an enzymatic dissociation. Papain activity was stopped by the addition of fetal calf serum (FCS) to the solution, and a single-cell suspension was then obtained by mechanical dissociation, which consisted in cells trituration in a DMEM (D7777, Sigma-Aldrich) medium (supplemented with 44 mm NaHCO3, and 10 ml/L antibiotic/antimycotic solution) containing 10% FCS. The cells were seeded at an average density of 6×10^4 cells/cm^2 in poly-D-lysine-coated 96, 12 or 6-well culture plates, depending on their use, and incubated at 37° C. in a humidified atmosphere containing 5% CO2/95% air. Culture medium was renewed twice per week. Cells were stimulated and harvested between DIV14 and DIV17, when confluence and cell growth were optimal.
Secretion of L-lactate was determined in the extracellular medium of 96-well plated astrocytes after 90 min stimulation (at 37° C., in 5% CO2/95% air conditions) with the drug of interest. The stimulation medium was composed of D5030 medium (completed with D-glucose 5 mM and 44 mM sodium bicarbonate) for 90 min in concentrations ranging from 0 to 100 μM.
Briefly, 200 μl of a Glycine (Sigma)-Semicarbazide (Acros) 0.2M pH 10 buffer containing 3 mM NAD (Roche) and LDH 14 U/ml (Roche) was added to each well of a 96-well plate containing 30 μl aliquots complemented with 20 μl fresh complete D5030 medium. Samples were incubated at 37° C. for 1 h. After samples cooled down at room temperature, the fluorescence intensity (340 nm excitation/450 nm emission) that represents the amount of NADH produced was measured, and lactate concentration values were determined from a standard curve of L-lactate.
Statistical analysis consisted in ANOVA followed by Fisher LSD post-hoc test for pair-wise comparisons.
Levels of lactate secreted by astrocytes were measured in the extracellular medium at 90 min after stimulation with hits (molecules) from the CDC54K library.

primary astrocytes = experiment: High throughput screening for lactate secretion: acidification of extracellular medium (SNARF5); type: cell-based, mouse; conditions: Mus musculus, Astrocyte, 1.5 h, 10 uM, 90 min
Experimental: as §1
Secretion of lactate in a high-throughput screening (HTS) fashion was measured indirectly through the acidification of extracellular medium. To this end, primary astrocytes grown in 96-well plates for 17 days were stimulated with the compounds as listed herein.
After washing the cells twice with stimulation medium (DMEM (D5030, Sigma), 3 mM NaHCO3 and 5 mM Glucose) at 37° C., cells were stimulated with the compounds at a final concentration of 10 uM (1% DMSO final) in 50 ul per well of stimulation medium supplemented with 10 uM of the extracellular pH sensor SNARF-5F %-(AND-6)-CAR (Life Technologies Corporation). Each compound was tested in two different plates for duplicates.
After 90 min stimulation, fluorescence was read at exc. (excitation) 480 nm/emm. (emission) 580 nm and at exc 480 nm/emm. 630 nm. The ratio of fluorescence between 630 nm and 580 emission values, which represents extracellular pH, was calculated.
In each plate, 8 wells were used for negative controls (DMSO) and 8 wells were used for positive controls (CCCP 2 uM in DMSO). Z prime values were calculated for each of the plates tested and values <0 were discarded.
The average and SD of compounds' values tested in duplicates were calculated, and compound was noted as HIT when the difference between compound's average and negative control's average was greater than three times the sum of compound's SD and negative controls' SD. Only scores greater than 40% were considered as lead hits for the CDC54K library; for the remaining libraries, all hits were considered. Scores are calculated as the % of activity compared to the positive control in each plate (which is 100%).
Primary screening hits were cherry picked on new plates and confirmed for SNARF5 effect, after having discarded those compounds that are fluorescent (exc. 480 nm/emm. 580 nm or 630 nm) before stimulation. Extracellular medium was next analyzed for extracellular lactate quantification for secondary screening.
Identification of lactate-enhancing drugs with high throughput screening (HTS) experiments on astrocytes primary cultures using extracellular pH dye (SNARF5F 5-(and 6)-carboxylic acid) for 90 min. The procedure is described in Material and Methods (2. Cell culture, 2.1. HTS for lactate secretion and 2.2. Extracellular lactate quantification).
The procedure was performed as follows: • Primary screening: acidification of the extracellular medium • Primary screening confirmation: acidification of the extracellular medium, removal of compounds with fluorescent activity at exc. 480 nm/emm. 580 nm or 630 nm. • Secondary screening: dosage of extracellular lactate

[1] = Appendix I, primary screening, relative to positive control, read-out: Score

Row | Structure (SMILES) | Emax at 10 µM (primary astrocytes; [1]) [%] | other results
1 | CCc1cc2c(NC3CCCC3)ncnc2s1 [887-0183] |  | EC50 (astrocytes): 3.94 µM
2 | Cc1noc2ncnc(NC(C)CCc3ccccc3)c12 (centres unmarked) [E944-0182] |  | EC50 (astrocytes): 3.99 µM
3 | COc1ccc(S(=O)(=O)Nc2ccc(N3CCCCS3(=O)=O)cc2)cc1C [F2794-0128] |  | EC50 (astrocytes): 9.85 µM
4 | Cc1cccc(NS(=O)(=O)c2ccc(F)c(Cl)c2)c1 [F3394-1364] |  | EC50 (astrocytes): 5.87 µM
5 | FC(F)(F)c1cccc(CNc2ncnc3[nH]ncc23)c1 [F5285-0069] |  | EC50 (astrocytes): 6.29 µM
6 | CCc1ccc(S(=O)(=O)Nc2cc3c(cc2C)n(C)c(=O)n3C)cc1 [G433-0293] |  | EC50 (astrocytes): 4.48 µM
7 | COc1ccc(NS(=O)(=O)c2ccc(N3CCCCS3(=O)=O)cc2)cc1 [G508-0015] |  | EC50 (astrocytes): 4.83 µM
8 | CCc1cccc(NS(=O)(=O)c2ccc3c(c2)CCCN3C(C)=O)c1 [G855-0143] |  | EC50 (astrocytes): 4.72 µM
9 | CC(=O)N1CCCc2cc(S(=O)(=O)Nc3ccc(OC(F)(F)F)cc3)ccc21 [G855-0183] |  | EC50 (astrocytes): 6 µM
10 | CCNc1cc(C)nc(Nc2ccc(NC(=O)Cc3ccccc3)cc2)n1 [G869-0064] |  | EC50 (astrocytes): 4.26 µM
11 | CCNc1cc(C)nc(Nc2ccc(NC(=O)c3cccs3)cc2)n1 [G869-0071] |  | EC50 (astrocytes): 4.9 µM
12 | COc1ccc(CCNc2ncnc3c2cnn3C)cc1 [K405-2595] |  | EC50 (astrocytes): 3.51 µM
13 | CCOc1ccc(-c2csc3c(=O)n(Cc4ccncc4)cnc23)cc1OCC [L115-0403] |  | EC50 (astrocytes): 3.28 µM
14 | Cc1cc(/C=C/c2ccc3cc(N(C)C)ccc3[n+]2C)c(C)n1-c1ccccc1 [Pyrvinium pamoate] |  | Emax at 10 µM (primary astrocytes; Prestwick hits, activity relative to positive control CCCP 2 uM, read-out: Score): 99.1%; Emax at 10 µM (primary astrocytes; Prestwick hits, relative to positive control CCCP 2 uM, read-out: HTS Score (lactate)): 99.1%
15 | O=C(c1ccco1)N1CCCn2nc(-c3ccc(C(F)(F)F)cc3)cc2C1 [T200-0370] | 56.2 | 
16 | CCOc1ccc(-c2cc3n(n2)CCCN(C(=O)c2cccnc2)C3)cc1 [T200-0707] | 16.7 | 
17 | COc1cccc(-c2cc3n(n2)CCCN(Cc2ccncc2)C3)c1 [T202-0973] | 34.1 | 
18 | O=C(C[n+]1cc(-c2ccc(Br)cc2)n2c1CCCCC2)c1ccccc1 [T0500-4648] | 109 | 
19 | O=C(C[n+]1cc(-c2ccccc2)n2c1CCC2)c1ccc(Br)cc1 [T0502-5560] | 102 | 
20 | OC1(c2ccccc2)C[N+](c2ccccc2)=C2SCCCN21 (centres unmarked) [T0507-8442] | 26.8 | 
21 | Fc1ccc(Nc2nc(N3CCOCC3)c3ccccc3n2)cc1 [T0508-5193] | 19.5 | 
22 | O=S(=O)(Nc1ccc(O)c(Cl)c1)c1ccc2ccccc2c1 [T0517-8939] | 76.8 | 

Row | Structure (SMILES) | Emax at 10 µM (primary astrocytes; [1]) [%] | other results
23 | CC(C)OCCCNc1ncnc2c1CCC2 [T636-0027] | 53.6 | 
24 | Cc1ccc(CNc2ncnc3c2CCC3)o1 [T636-0054] | 55.3 | 
25 | c1cncc(CCNc2ncnc3c2CCC3)c1 [T636-0085] | 28.4 | 
26 | COc1cccc(CNc2ncnc3c2CCC3)c1 [T636-0134] | 75.1 | 
27 | CN1CCC(OCCCNc2ncnc3c2CCC3)CC1 [T636-0181] | 22.8 | 
28 | c1coc(CNc2nc(-c3ccncc3)nc3c2CCC3)c1 [T636-0973] | 0 | 
29 | Cc1ccsc1C(=O)NC1CCN(c2ncnc3c2CCC3)C1 (centres unmarked) [T636-1114] | 72.5 | 
30 | O=C(NCc1ccccc1)NC1CCN(c2ncnc3c2CCC3)C1 (centres unmarked) [T636-1210] | 48.9 | 
31 | O=C(NCc1cccc(F)c1)NC1CCN(c2ncnc3c2CCC3)C1 (centres unmarked) [T636-1243] | 45.5 | 
32 | O=S(=O)(NC1CCN(c2ncnc3c2CCC3)C1)c1ccccc1 (centres unmarked) [T636-1250] | 96.4 | 
33 | O=C(c1cccc(F)c1)N1CCC(Nc2ncnc3c2CCC3)CC1 [T636-1601] | 0 | 
34 | c1ccc(CN2CCC(Nc3ncnc4c3CCC4)CC2)nc1 [T636-1715] | 0 | 
35 | Cc1ccc(CN2CCN(c3ncnc4c3CCC4)CC2)o1 [T636-1937] | 74 | 
36 | COc1ccc(CN2CCN(c3ncnc4c3CCC4)CC2)cc1OC [T636-2007] | 102 | 
37 | Cc1ccc(C(=O)N2CCCC(Nc3ncnc4c3CCC4)C2)cn1 (centres unmarked) [T636-2144] | 0 | 
38 | O=C(Cc1cccc(F)c1)N1CCC(Nc2ncnc3c2CCC3)C1 (centres unmarked) [T636-2360] | 44 | 
39 | O=C(c1ccc(Cl)s1)N1CCC(Nc2ncnc3c2CCC3)C1 (centres unmarked) [T636-2391] | 93.2 | 
40 | Cn1nccc1C(=O)N1CCC(Nc2ncnc3c2CCC3)C1 (centres unmarked) [T636-2425] | 22 | 
41 | O=S(=O)(Nc1ccc(F)c(Cl)c1)c1ccc2ccccc2c1 [T5231424] | 67.3 | 
42 | COc1ccccc1S(=O)(=O)Nc1ccc2nc(C)sc2c1 [T5246417] | 24.1 | 
43 | FC(F)(F)c1cccc(CNc2ncnc3sccc23)c1 [T5346988] | 99.6 | 
44 | Clc1ccc(Nc2ncnc3sccc23)cc1 [T5393195] | 36.9 | 

Row | Structure (SMILES) | Emax at 10 µM (primary astrocytes; [1]) [%] | other results
45 | O=S(=O)(Nc1ccc2[nH]ncc2c1)c1ccc(Cl)cc1F [T5436375] | 0 | 
46 | COc1ccc(C2SCCN2S(=O)(=O)c2cccc(C)c2)cc1OC (centres unmarked) [T5463658] | 27.2 | 
47 | Cc1ccc(S(=O)(=O)N2CCSC2c2cccc([N+](=O)[O-])c2)c(C)c1 (centres unmarked) [T5463709] | 24.4 | 
48 | Cc1ccc(S(=O)(=O)N2CCSC2c2ccc([N+](=O)[O-])cc2)c(C)c1 (centres unmarked) [T5464782] | 27.7 | 
49 | Cc1nc2ccc(NS(=O)(=O)c3ccccc3F)cc2s1 [T5511047] | 67 | 
50 | Cn1nc(CC(=O)Nc2cccc(C(=O)NC3CC3)c2)c2ccccc2c1=O [T5543110] | 39.1 | 
51 | Cc1cc(S(=O)(=O)NCc2ccncc2)c(Cl)cc1Cl [T5581430] | 47.2 | 
52 | Cc1nc(-c2cccc(NS(=O)(=O)c3ccc(N4CCCC4=O)cc3)c2)cs1 [T5599698] | 85.6 | 
53 | O=C(NC1CC1)c1cccc(NS(=O)(=O)c2ccc(N3CCCC3=O)cc2)c1 [T5618591] | 41.6 | 
54 | CC(=O)c1cccc(NC(=O)C(C)Sc2ncnc3ccsc23)c1 (centres unmarked) [T5627721] | 72.4 | 
55 | CC1c2ccsc2CCN1c1ncnc2sccc12 (centres unmarked) [T5630309] | 72.2 | 
56 | O=S(=O)(Nc1ccc2[nH]ncc2c1)c1ccc(C(F)(F)F)cc1 [T5653029] | 36.2 | 
57 | c1csc(C(Nc2ncnc3sccc23)C2CC2)c1 (centres unmarked) [T5713637] | 114 | 
58 | O=C(Cc1n[nH]c(=O)c2ccccc12)Nc1cccc(Br)c1 [T5717474] | 21.7 | 
59 | c1ccc(C(Nc2ncnc3sccc23)C2CC2)cc1 (centres unmarked) [T6016487] | 126 | 
60 | CC(=O)N1CCCc2cc(S(=O)(=O)NC(c3ccccc3)C(C)C)ccc21 (centres unmarked) [T6067366] | 0 | 
61 | CC(=O)N1CCCc2cc(S(=O)(=O)NCc3cccc(C(F)(F)F)c3)ccc21 [T6099519] | 27.6 | 
62 | Cc1ccc(F)cc1NC(=O)Cc1nn(C)c(=O)c2ccccc12 [T6302989] | 40.5 | 
63 | c1ccc2c(c1)CN(c1ncnc3sccc13)CCN2 [T6768300] | 34.4 | 
64 | CN(C)Cc1cccc(CNc2ncnc3sccc23)c1 [T6783542] | 85.7 | 
